Here are results for 1 compound from patent US9604974B2, “Compounds as modulator of JAK-STAT pathway, methods and applications thereof” (UNIVERSITY OF MYSORE, priority 2015, dated 2017).

For one assay, the system named is JAK2. Put plainly: IL-6 induced JAK2 phosphorylation in Hep3B. Type of assay: cell-based. As to conditions: 10 μMol/L CIMO, IL-6 10 ng/mL. The protocol: (§1) FIG. 3 depicts comparative study of cell viability between STAT3-siRNA transfected and Compound 1 (CIMO) treated HepG2 cells [A]. Correspondingly, Western Blot analysis is used to assess the levels of phospho-STAT3 and STAT3 in HepG2 cells with siRNA-mediated depletion STAT3 expression and on exposure to 4 μM CIMO. Whole cell extract is prepared and resolved on SDS-PAGE gel, electrotransferred onto nitrocellulose membrane, and probed for phospho-STAT3 and the same blot is stripped and reprobed with STAT3 antibody and Beta actin to verify equal protein loading. [B] showcases the modulation of STAT3 mediated transcription, α2-M promoter activity by Compound 1 (CIMO) in HepG2 cells. [C] depicts the inhibition of IL-6-induced phosphorylation of STAT3, JAK1 and JAK2 by Compound 1 (CIMO). Hep3B cells (5×10^5/mL) are treated with 10 μMol/L CIMO for the indicated times and then stimulated with IL-6 (10 ng/mL) for about 15 minutes. Whole-cell extracts are then prepared, resolved on SDS-PAGE gel, electrotransferred onto nitrocellulose membrane and probed with phospho-STAT3, phospho-JAK1 and phospho-JAK2 antibodies. The same blot is stripped and reprobed with STAT3, JAK1 and JAK2 antibody to verify equal protein loading. [D] and [E], showcases the suppression of STAT3 regulated gene products involved in cell proliferation and survival by Compound 1 (CIMO). […]

The test system of assay [1] is Bcl-2, Bcl-xL, Survivin, ICAM-1, Bid, Cyclin D1, Bak. Put plainly: Western blot of STAT3-regulated gene products. It is filed as cell-based, human. As to conditions: HepG2, 10 μMol/L CIMO. The protocol:
as §1
To detect STAT3-regulated proteins and PARP, cells (2×10^6/ml) are treated with CIMO for the indicated times as shown in respective FIGS. 3E, 3D and 4A. […] Whole-cell extract protein (30 μg) is resolved on SDS-PAGE, electrotransferred onto a nitrocellulose membrane, blotted with antibodies against survivin, Bcl-2, Bcl-xL, cyclin D1, Bak, Bid, ICAM-1, procaspase-3, and PARP and then detected by chemiluminescence (ECL; GE Healthcare, Little Chalfont, Buckinghamshire, UK).
(In general: A western blot detects proteins with antibodies after separation by electrophoresis.)

Turning to `COc1ccc(C2CNC(c3cn(Cc4ccc(-c5ccccc5C#N)cc4)c4ccccc34)OC23CCCCC3)cc1` (stereo not shown) [Compound 1], in the assay with JAK2, the “IL-6 induced phosphorylation of JAK2” value is recorded as “substantially down-regulates”. In assay [1], the “expression of Bcl-2, Bcl-xL, Survivin, ICAM-1, Bid and Cyclin D1” value is “Down-regulation”; the “time of maximum activity on Bak expression” value came out at 36 h. For the same compound, in assay [1] (time-dependent), the “expression of pro-apoptotic protein Bak” value is recorded as “upregulation”.
